Experiment [1] relates to HeLa. Briefly: MTS proliferation assay. The class given is cell-based, human. The following applies: 72 h. The method, boiled down:
(§1)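 Cells were exposed for 72 h under culture conditions to test compounds at final concentrations of 10, 3, 1 and 0.3 μM, added in complete medium with at most 5% DMSO. MTS reagent was then added for a further 3 h, and absorbance was read at 492 nm.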

Experiment [2] deals with Jurkat. Put plainly: MTS proliferation assay. The class given is cell-based, human. The following applies: 72 h. Put shortly: as §1
In a further experiment the test system is MRC5. Briefly: MTS proliferation assay. The class given is cell-based. The following applies: MRC5, 72 h. The method, boiled down:
as §1

Experiment [3] concerns HeLa. Briefly: PI staining for cell cycle distribution. The class given is cell-based, human. The following applies: HeLa 10μM, 48 h. Set-up: key: 0: no effect; 1: weak effect; 2: strong effect. How it is done:
(§2) 1-2*10^5 cells are seeded into 24 well tissue culture plates and incubated for 24 h prior to compound addition. […] Adherent cells are harvested by trypsinization. The cell suspensions are fixed by adding 2 parts ice cold ethanol 100% while vortexing. Then the samples are stored for>2 h at −20° C. Subsequently the cells are washed with PBS once and resuspended in 250 μl PBS containing 50 μg/ml PI (Calbiochem # 537059), then the samples are incubated at 37° C. for 30 min and subsequently analyzed on a FACSCalibur™ monitoring linear PI fluorescence activity on FL2. The readout allows the detection of a possible direct or indirect influence of the tested compounds on the cell cycle. The following events can occur: a) Generation of a subG1 peak indicative for DNA fragmentation, b) increase of the cell population arrested in G2M phase. Both events are scored by 1 for weak and 2 for strong occurrence. 0 indicates no occurrence at all.

Experiment [4] concerns Jurkat. Put plainly: PI staining for cell cycle distribution. The class given is cell-based, human. Set-up: key: 0: no effect; 1: weak effect; 2: strong effect. The note with it: Jurkat 3μM, 48 h. The method, then: as §2
The test system of a further experiment is Jily. Briefly: MTS proliferation assay. The class given is cell-based. The following applies: 72 h. The method, boiled down:
as §1

The nature of experiment [5]: Hoechst 33342 nuclear staining.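 For all read-outs here: apoptotic nuclei scored 0 none 1 weak under 50% of cells 2 strong over 50% of cells.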 The class given is cell-based. The following applies: for Hoechst 33342 nuclear staining score, H460: H460 cells; for Hoechst 33342 nuclear staining score, HeLa: HeLa cells; for Hoechst 33342 nuclear staining score, Jily: Jily cells; for Hoechst 33342 nuclear staining score, Jurkat: Jurkat cells; for Hoechst 33342 nuclear staining score, MRC5: MRC5 cells. Put shortly: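 Cells were plated in 96 well tissue culture plates in 80 μl complete medium, with 3-5*10^3 cells per well for adherent lines and 8-10*10^3 for suspension lines. Adherent cells spread for 24 h before treatment, while suspension cells were treated right after seeding. Compounds were added in 20 μl complete medium containing max 5% DMSO.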

Consider four compounds from patent US7612064B2, “Sulfopyrroles” (Takeda Pharmaceutical Company Limited, priority 2003, dated 2009).

On to “p-(1-[p-Toluenesulfonyl]-2-[3,4,5-trimethoxyphenyl]-4-pyrrolyl)-benzamide [Example 6]”, for which the IC50 with HeLa [1] is less than 1000 nM; with Jurkat [2], less than 200 nM; with MRC5, less than 1000 nM. The “PI staining for cell cycle distribution, G2M” value worked out at 2 with HeLa [3] and 1 in the experiment with Jurkat [4]. For the same compound, the “PI staining for cell cycle distribution, subG1” value in the experiment with HeLa [3] and in the experiment with Jurkat [4] was 0 throughout.

Consider `COc1cc(-c2cc(-c3cncc(CN)c3)cn2S(=O)(=O)c2ccc(C)cc2)cc(OC)c1OC` [Example 58], for which the IC50 in the experiment on HeLa [1] was less than 1000 nM; in the experiment with Jurkat [2], less than 1000 nM; with Jily, less than 1000 nM; with MRC5 it was more than 1000 nM. For the same compound, the “Hoechst 33342 nuclear staining score, H460” value in experiment [5] (conc 0.1) is 0; in experiment [5] (conc 0.3), 0; in experiment [5] (conc 1), 2 (strong activity comprising more than 50% of the cells); in experiment [5] (conc 3) it was 2 (strong activity comprising more than 50% of the cells). Besides, the “Hoechst 33342 nuclear staining score, HeLa” value in experiment [5] (conc 0.1) was 0; in experiment [5] (conc 0.3) it was 0; in experiment [5] (conc 1), 2 (strong activity comprising more than 50% of the cells); in experiment [5] (conc 3) it was 2 (strong activity comprising more than 50% of the cells). Also, the “Hoechst 33342 nuclear staining score, Jily” value in experiment [5] (conc 0.1) is listed as 0; in experiment [5] (conc 0.3) it was 0; in experiment [5] (conc 1), 2 (strong activity comprising more than 50% of the cells); in experiment [5] (conc 3), 2 (strong activity comprising more than 50% of the cells). The “Hoechst 33342 nuclear staining score, Jurkat” value in experiment [5] (conc 0.1) was 0; in experiment [5] (conc 0.3) it was 2 (strong activity comprising more than 50% of the cells); in experiment [5] (conc 1) it was 2 (strong activity comprising more than 50% of the cells); in experiment [5] (conc 3) it was 2 (strong activity comprising more than 50% of the cells). In addition, the “Hoechst 33342 nuclear staining score, MRC5” value in experiment [5] (conc 0.1) is 0; in experiment [5] (conc 0.3), 0; in experiment [5] (conc 1), 1 (weak activity comprising less than 50% of the cells); in experiment [5] (conc 3), 2 (strong activity comprising more than 50% of the cells). The “Hoechst 33342 nuclear staining score, PBLs” value in experiment [5] (conc 0.1), in experiment [5] (conc 0.3), in experiment [5] (conc 1) and in experiment [5] (conc 3) was 0 each time.

Consider `COc1cc(-c2cc(-c3cccnc3)cn2S(=O)(=O)c2cn(C)cn2)cc(OC)c1OC` [Example 87], for which the IC50 in the experiment on HeLa [1], in the experiment with Jurkat [2], in the experiment on Jily and with MRC5 was more than 1000 nM throughout. For the same compound, the “Hoechst 33342 nuclear staining score, H460” value in experiment [5] (conc 0.1), in experiment [5] (conc 0.3), in experiment [5] (conc 1) and in experiment [5] (conc 3) was 0 in each case. Moreover, the “Hoechst 33342 nuclear staining score, HeLa” value in experiment [5] (conc 0.1), in experiment [5] (conc 0.3), in experiment [5] (conc 1) and in experiment [5] (conc 3) was 0 throughout. The “Hoechst 33342 nuclear staining score, Jily” value in experiment [5] (conc 0.1), in experiment [5] (conc 0.3), in experiment [5] (conc 1) and in experiment [5] (conc 3) was 0 each time. In addition, the “Hoechst 33342 nuclear staining score, Jurkat” value in experiment [5] (conc 0.1), in experiment [5] (conc 0.3), in experiment [5] (conc 1) and in experiment [5] (conc 3) was 0 each time. Further, the “Hoechst 33342 nuclear staining score, MRC5” value in experiment [5] (conc 0.1), in experiment [5] (conc 0.3), in experiment [5] (conc 1) and in experiment [5] (conc 3) was 0 each time. The “Hoechst 33342 nuclear staining score, PBLs” value in experiment [5] (conc 0.1), in experiment [5] (conc 0.3), in experiment [5] (conc 1) and in experiment [5] (conc 3) was 0 throughout.

With `COc1ccc(S(=O)(=O)n2cc(-c3ccc(N)nc3)cc2-c2ccccc2OC)cc1` [Example 103], the 50% inhibitory concentration (IC50) in the experiment with HeLa [1] is more than 1000 nM; in the experiment on Jurkat [2], less than 1000 nM; in the experiment on Jily, less than 1000 nM; in the experiment on MRC5 it was more than 1000 nM. The “Hoechst 33342 nuclear staining score, H460” value in experiment [5] (conc 0.1) was 0; in experiment [5] (conc 0.3) it was 0; in experiment [5] (conc 1) it was 0; in experiment [5] (conc 3), 2 (strong activity comprising more than 50% of the cells). Further, the “Hoechst 33342 nuclear staining score, HeLa” value in experiment [5] (conc 0.1) is 0; in experiment [5] (conc 0.3) it was 0; in experiment [5] (conc 1), 0; in experiment [5] (conc 3), 2 (strong activity comprising more than 50% of the cells). Further, the “Hoechst 33342 nuclear staining score, Jily” value is recorded as 0 in experiment [5] (conc 0.1), 0 in experiment [5] (conc 0.3), 2 (strong activity comprising more than 50% of the cells) in experiment [5] (conc 1) and 2 (strong activity comprising more than 50% of the cells) in experiment [5] (conc 3). In addition, the “Hoechst 33342 nuclear staining score, Jurkat” value in experiment [5] (conc 0.1) is 0; in experiment [5] (conc 0.3), 0; in experiment [5] (conc 1), 2 (strong activity comprising more than 50% of the cells); in experiment [5] (conc 3), 2 (strong activity comprising more than 50% of the cells). Further, the “Hoechst 33342 nuclear staining score, MRC5” value in experiment [5] (conc 0.1) was 0; in experiment [5] (conc 0.3), 0; in experiment [5] (conc 1) it was 0; in experiment [5] (conc 3), 1 (weak activity comprising less than 50% of the cells). Besides, the “Hoechst 33342 nuclear staining score, PBLs” value in experiment [5] (conc 0.1), in experiment [5] (conc 0.3), in experiment [5] (conc 1) and in experiment [5] (conc 3) was 0 throughout.
